For 13 compounds, EC50 results are on record in patent US12617783B2, “Heterocyclic GLP-1R agonists” (BIOMEA FUSION, INC., priority 2024, dated 2026).

SMILES strings stand for the structures.

The target of the assay is T1, human GLP-1R (Homo sapiens, UniProt P43220).
T1 construct: host or cells: HEK293
T1 sequence (P43220 24-463): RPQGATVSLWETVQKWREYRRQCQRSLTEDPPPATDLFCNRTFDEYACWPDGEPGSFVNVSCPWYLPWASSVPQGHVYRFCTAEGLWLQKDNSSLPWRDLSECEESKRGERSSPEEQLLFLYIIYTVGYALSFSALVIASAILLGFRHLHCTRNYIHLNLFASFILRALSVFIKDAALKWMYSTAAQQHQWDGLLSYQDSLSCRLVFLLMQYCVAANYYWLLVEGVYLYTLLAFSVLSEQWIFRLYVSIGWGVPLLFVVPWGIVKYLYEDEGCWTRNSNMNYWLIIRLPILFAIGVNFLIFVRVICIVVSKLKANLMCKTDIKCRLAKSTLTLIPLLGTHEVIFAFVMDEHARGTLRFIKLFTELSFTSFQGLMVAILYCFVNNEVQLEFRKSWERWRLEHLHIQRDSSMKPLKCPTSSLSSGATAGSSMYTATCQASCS
Put plainly: GLP-1R cAMP assay (Example B1a, HTRF, 30 min at room temperature). It counts as cell-based. As to conditions: cAMP accumulation in HEK293 expressing human GLP-1R, no BETP, 30 min room temperature (Method B1a, compounds ID 1-609), Table 1; read-out: EC50. The method, boiled down:
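Competitive HTRF read-out of cAMP after 30 min room-temperature stimulation, BETP absent, of human GLP-1R-HEK293 cells (1,000/well) in HEPES buffer with 500 μM IBMX and 0.1% BSA. Activation normalised to GLP-1(7-37) positive control. EC50 from 4-parameter non-linear regression.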
A general note: Cyclic AMP is a second messenger, typically raised through Gs and lowered through Gi signalling.
Turning to `Cc1cc(-n2nc3c(c2-n2ccn(-c4ccc5c(cnn5C)c4F)c2=O)[C@@H]2CC[C@H](C3)N2C(=O)c2cc3nc(C4CCOC(C)(C)C4)sc3n2[C@@]2(c3noc(=O)[nH]3)C[C@@H]2C)cc(C)c1F` (stereo partly drawn) [Compound 139, 3-[(1S,2S)-1-[2-(2,2-dimethyltetrahydropyran-4-yl)-5-[(1S,8R)-4-(4-fluoro-3,5-dimethyl-phenyl)-3-[3-(4-fluoro-1-methyl-indazol-5-yl)-2-oxo-imidazol-1-yl]-4,5,11-triazatricyclo[6.2.1.02,6]undeca-2,5-diene-11-carbonyl]pyrrolo[3,2-d]thiazol-4-yl]-2-methyl-cyclopropyl]-4H-1,2,4-oxadiazol-5-one], the EC50 – broadly, the concentration that produces a half-maximal response – worked out at 3110 nM.
As to `Cc1cc(-n2nc3c(c2-n2ccn(-c4ccc5c(cnn5C)c4F)c2=O)[C@@H]2CC[C@H](C3)N2C(=O)c2cc3cc([C@H]4CCOC(C)(C)C4)ccc3n2C(C)(C)c2noc(=O)[nH]2)cc(C)c1F` [Compound 140, 3-[1-[5-[(4S)-2,2-dimethyltetrahydropyran-4-yl]-2-[(1S,8R)-4-(4-fluoro-3,5-dimethyl-phenyl)-3-[3-(4-fluoro-1-methyl-indazol-5-yl)-2-oxo-imidazol-1-yl]-4,5,11-triazatricyclo[6.2.1.02,6]undeca-2,5-diene-11-carbonyl]indol-1-yl]-1-methyl-ethyl]-4H-1,2,4-oxadiazol-5-one], the EC50 is > 10000 nM.
For `Cc1cc(-n2nc3c(c2-n2ccn(-c4ccc5c(cnn5C)c4F)c2=O)[C@@H]2CC[C@H](C3)N2C(=O)c2cc3cc([C@H]4CCOC(C)(C)C4)ccc3n2[C@@]2(C(=O)NS(C)(=O)=O)C[C@@H]2C)cc(C)c1F` [Compound 201, cis-(1S,2S)-1-[5-[(4S)-2,2-dimethyltetrahydropyran-4-yl]-2-[(1S,8R)-4-(4-fluoro-3,5-dimethyl-phenyl)-3-[3-(4-fluoro-1-methyl-indazol-5-yl)-2-oxo-imidazol-1-yl]-4,5,11-triazatricyclo[6.2.1.02,6]undeca-2,5-diene-11-carbonyl]indol-1-yl]-2-methyl-N-methylsulfonyl-cyclopropanecarboxamide], the EC50 was > 10000 nM.
`Cc1cc(-n2nc3c(c2-n2ccn(-c4ccc5c(cnn5C)c4F)c2=O)[C@@H]2CC[C@H](C3)N2C(=O)c2cc3nc(C4CCOC(C)(C)C4)sc3n2C2(c3noc(=O)[nH]3)CC2C)cc(C)c1F` (stereo partly drawn) [Compound 202, 3-[1-[2-(2,2-dimethyltetrahydropyran-4-yl)-5-[(1S,8R)-4-(4-fluoro-3,5-dimethyl-phenyl)-3-[3-(4-fluoro-1-methyl-indazol-5-yl)-2-oxo-imidazol-1-yl]-4,5,11-triazatricyclo[6.2.1.02,6]undeca-2,5-diene-11-carbonyl]pyrrolo[3,2-d]thiazol-4-yl]-2-methyl-cyclopropyl]-4H-1,2,4-oxadiazol-5-one]: the EC50 was > 10000 nM.
For `CCP(=O)(CC)c1ccc(-n2ccn(-c3c4c(nn3-c3cc(C)c(F)c(C)c3)C[C@H]3CC[C@@H]4N3C(=O)c3cc4cc([C@H]5CCOC(C)(C)C5)ccc4n3[C@@]3(c4noc(=O)[nH]4)C[C@@H]3C)c2=O)cc1NC` [Compound 203, 3-[(1S,2S)-1-[2-[(1S,8R)-3-[3-[4-diethylphosphoryl-3-(methylamino)phenyl]-2-oxo-imidazol-1-yl]-4-(4-fluoro-3,5-dimethyl-phenyl)-4,5,11-triazatricyclo[6.2.1.02,6]undeca-2,5-diene-11-carbonyl]-5-[(4S)-2,2-dimethyltetrahydropyran-4-yl]indol-1-yl]-2-methyl-cyclopropyl]-4H-1,2,4-oxadiazol-5-one] the value was 919 nM.
`Cc1cc(-n2nc3c(c2-n2ccn(-c4ccc5c(cnn5C)c4F)c2=O)[C@@H]2CC[C@H](C3)N2C(=O)c2cc3cc([C@H]4CCOC(C)(C)C4)ccc3n2[C@@]2(C(=O)NS(=O)(=O)C3CC3)C[C@@H]2C)cc(C)c1F` [Compound 204, cis-(1S,2S)-N-cyclopropylsulfonyl-1-[5-[(4S)-2,2-dimethyltetrahydropyran-4-yl]-2-[(1S,8R)-4-(4-fluoro-3,5-dimethyl-phenyl)-3-[3-(4-fluoro-1-methyl-indazol-5-yl)-2-oxo-imidazol-1-yl]-4,5,11-triazatricyclo[6.2.1.02,6]undeca-2,5-diene-11-carbonyl]indol-1-yl]-2-methyl-cyclopropanecarboxamide]: the EC50 was > 10000 nM.
Then `Cc1cc(-n2nc3c(c2-n2ccn(-c4ccc5c(cnn5C)c4F)c2=O)[C@@H]2CC[C@H](C3)N2C(=O)c2cc3cc([C@H]4CCOC(C)(C)C4)ccc3n2[C@@]2(C(=O)NS(=O)(=O)N(C)C)C[C@@H]2C)cc(C)c1F` [Compound 205, cis-(1S,2S)-N-(dimethylsulfamoyl)-1-[5-[(4S)-2,2-dimethyltetrahydropyran-4-yl]-2-[(1S,8R)-4-(4-fluoro-3,5-dimethyl-phenyl)-3-[3-(4-fluoro-1-methyl-indazol-5-yl)-2-oxo-imidazol-1-yl]-4,5,11-triazatricyclo[6.2.1.02,6]undeca-2,5-diene-11-carbonyl]indol-1-yl]-2-methyl-cyclopropanecarboxamide], with > 10000 nM.
Take `Cc1cc(-n2nc3c(c2-n2ccn(-c4ccc5c(cnn5C)c4F)c2=O)[C@@H]2CC[C@H](C3)N2C(=O)c2cc3nc([C@H]4CCOC(C)(C)C4)sc3n2[C@@]2(c3noc(=O)[nH]3)C[C@@H]2C)cc(C)c1F` [Compound 206, 3-[(1S,2S)-1-[2-[(4S)-2,2-dimethyltetrahydropyran-4-yl]-5-[(1S,8R)-4-(4-fluoro-3,5-dimethyl-phenyl)-3-[3-(4-fluoro-1-methyl-indazol-5-yl)-2-oxo-imidazol-1-yl]-4,5,11-triazatricyclo[6.2.1.02,6]undeca-2,5-diene-11-carbonyl]pyrrolo[3,2-d]thiazol-4-yl]-2-methyl-cyclopropyl]-4H-1,2,4-oxadiazol-5-one]: the EC50 was 1440 nM.
Consider `Cc1cc(-n2nc3c(c2-n2ccn(-c4ccc5c(cnn5C)c4F)c2=O)[C@@H]2CC[C@H](C3)N2C(=O)c2cc3nc([C@@H]4CCOC(C)(C)C4)sc3n2[C@@]2(c3noc(=O)[nH]3)C[C@@H]2C)cc(C)c1F` [Compound 207, 3-[(1S,2S)-1-[2-[(4R)-2,2-dimethyltetrahydropyran-4-yl]-5-[(1S,8R)-4-(4-fluoro-3,5-dimethyl-phenyl)-3-[3-(4-fluoro-1-methyl-indazol-5-yl)-2-oxo-imidazol-1-yl]-4,5,11-triazatricyclo[6.2.1.02,6]undeca-2,5-diene-11-carbonyl]pyrrolo[3,2-d]thiazol-4-yl]-2-methyl-cyclopropyl]-4H-1,2,4-oxadiazol-5-one], for which the EC50 was > 10000 nM.
Then `Cc1cc(-n2nc3c(c2-n2ccn(-c4ccc5c(cnn5C)c4F)c2=O)[C@@H]2CC[C@H](C3)N2C(=O)c2cc3cc(C4CCOCC4)ccc3n2[C@@]2(c3noc(=O)[nH]3)C[C@@H]2C)cc(C)c1F` [Compound 208, 3-((1S,2S)-1-(2-((4S,7R)-3-(3-(4-fluoro-1-methyl-1H-indazol-5-yl)-2-oxo-2,3-dihydro-1H-imidazol-1-yl)-2-(4-fluoro-3,5-dimethylphenyl)-2,4,5,6,7,8-hexahydro-4,7-epiminocyclohepta [c]pyrazole-9-carbonyl)-5-(tetrahydro-2H-pyran-4-yl)-1H-indol-1-yl)-2-methylcyclopropyl)-1,2,4-oxadiazol-5 (4H)-one], with 182 nM; and `Cc1cc(-n2nc3c(c2-n2ccn(-c4ccc5c(cnn5C)c4F)c2=O)[C@@H]2CC[C@H](C3)N2C(=O)c2cc3cc(C4CCOC(C)(C)C4)ncc3n2[C@@]2(c3noc(=O)[nH]3)C[C@@H]2C)cc(C)c1F` (stereo partly drawn) [Compound 209, 3-((1S,2S)-1-(5-(2,2-dimethyltetrahydro-2H-pyran-4-yl)-2-((4S,7R)-3-(3-(4-fluoro-1-methyl-1H-indazol-5-yl)-2-oxo-2,3-dihydro-1H-imidazol-1-yl)-2-(4-fluoro-3,5-dimethylphenyl)-2,4,5,6,7,8-hexahydro-4,7-epiminocyclohepta [c]pyrazole-9-carbonyl)-1H-pyrrolo[2,3-c]pyridin-1-yl)-2-methylcyclopropyl)-1,2,4-oxadiazol-5 (4H)-one], with 117 nM; and `Cc1cc(-n2nc3c(c2-n2ccn(-c4ccc5c(cnn5C)c4F)c2=O)[C@@H]2CC[C@H](C3)N2C(=O)c2cc3nc(C4CCOC(C)(C)C4)ccc3n2[C@@]2(c3noc(=O)[nH]3)C[C@@H]2C)cc(C)c1F` (stereo partly drawn) [Compound 210, 3-[(1S,2S)-1-[5-(2,2-dimethyltetrahydropyran-4-yl)-2-[(1S,8R)-4-(4-fluoro-3,5-dimethyl-phenyl)-3-[3-(4-fluoro-1-methyl-indazol-5-yl)-2-oxo-imidazol-1-yl]-4,5,11-triazatricyclo[6.2.1.02,6]undeca-2,5-diene-11-carbonyl]pyrrolo[3,2-b]pyridin-1-yl]-2-methyl-cyclopropyl]-4H-1,2,4-oxadiazol-5-one], with 959 nM.
Consider `Cc1cc(-n2nc3c(c2-n2ccn(-c4ccc5c(cnn5C)c4F)c2=O)[C@@H]2CC[C@H](C3)N2C(=O)c2cc3cc([C@H]4CCOC(C)(C)C4)ncc3n2[C@@]2(c3noc(=O)[nH]3)C[C@@H]2C)cc(C)c1F` [Compound 211, 3-((1S,2S)-1-(5-((S)-2,2-dimethyltetrahydro-2H-pyran-4-yl)-2-((4S,7R)-3-(3-(4-fluoro-1-methyl-1H-indazol-5-yl)-2-oxo-2,3-dihydro-1H-imidazol-1-yl)-2-(4-fluoro-3,5-dimethylphenyl)-2,4,5,6,7,8-hexahydro-4,7-epiminocyclohepta [c]pyrazole-9-carbonyl)-1H-pyrrolo[2,3-c]pyridin-1-yl)-2-methylcyclopropyl)-1,2,4-oxadiazol-5 (4H)-one], for which the EC50 came to 51 nM.
